According to patent US20220324835A1 (Nurix Therapeutics, Inc., priority 2018, published 2022):

Columns and labels:
Cbl-b [1] = biological target: T1, Cbl-b (Homo sapiens, UniProt Q13191); assay: Cbl-b activity assay (Cbl-b inhibition assay), TR-FRET of Cbl-b interaction with UbcH5B-Ub; type: biochemical
Summary of the method: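 Compound-treated Cbl-b was incubated 1.5 h with Src kinase (60 nM final; 30 nM for asterisked values, which also used 50 mM instead of 100 mM NaCl), 1 mM ATP and 5 mM MgCl2. Binding to fluorescent Ub-loaded UbcH5B (C85K mutant) was then read by TR-FRET after 1 h more.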

Cbl-b (residues 36-427) = Cbl-b (residues 36-427) (Homo sapiens, UniProt Q13191); assay: Cbl-b binding assay (SPR, Biacore T200); settings: 20° C., 1:1 binding model
Description: SPR data was collected on a Biacore T200 (GE Healthcare) using a NeutrAvidin (Invitrogen) capture surface that was generated on a polycarboxylate hydrogel sensor chip of medium charge density (XanTec Bioanalytics GmbH) at 20° C. The surface was prepared using 20 mM HEPES, pH 7.5, 100 mM NaCl, 0.5 mM TCEP, 0.01% Triton X-100 as the immobilization buffer. Neutravidin was coupled to the sensor chip through EDC/NHS amine coupling. All steps were performed using a flow rate of 10 μl/min. First, the chip was preconditioned with a 3-min injection of 1 M NaCl, 0.1 M Borate followed by a 10-min equilibration in immobilization buffer. The surface was activated by a 5-min injection of 100 mM EDC/50 mM NHS. Next, 250 μg/mL NeutrAvidin buffered in 10 mM sodium acetate buffer, pH 5.0 was injected over the surface for 2 min. The surface was deactivated with 1 M Tris, pH 8.5 for 7 min then re-equilibrated in immobilization buffer for 7 min. […] Flow cell 1 served as a reference surface and was prepared without protein. All binding measurements were made in 20 mM HEPES, pH 7.5, 100 mM NaCl, 0.5 mM TCEP, 0.01% Triton X-100, 2% DMSO (referred as assay buffer) at 20° C. Compounds, prepared in assay buffer, were diluted from atop concentration of either 100 μM or 50 μM using either a 2- or 3-fold dilution scheme containing 8 or 10 points. Samples were injected for 50 s at 50 μl/min. Dissociation time varied from 90-180 s, depending on anticipated potency. The surface was regenerated by injection of 0.3 M NaCl, prepared in assay buffer for 20 s at 10 μl/min. Positive and negative control samples were run between each compound to monitor surface integrity.
Column marked with an asterisk (*) were tested as described above with assay buffer containing 50 mM NaCl instead of 100 mM NaCl and 30 nM Src kinase instead of 60 nM Src kinase. The resulting data for the Cbl-b binding assay was solvent corrected and double referenced prior to analysis. All data were globally fit to a steady-state affinity and kinetic binding model where applicable). Fit parameters were derived from a 1:1 binding model using the Biacore T200 Evaluation Software V2.0 (GE Healthcare) (Table 2).

Cbl-b [2] = biological target: T1, Cbl-b; assay: Cbl-b inhibition assay (Cbl-b activity assay, FRET, Biological Example 1; 100 mM NaCl, 60 nM Src kinase); type: biochemical; settings: upper bound stated in text lists; read-out: IC50 values in the Cbl-b inhibition assay of Biological Example 1
Summary of the method: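 Here, the E2 UbcH5B, irreversibly linked to Bodipy-fluorescein ubiquitin, binds Cbl-b once Src kinase phosphorylates it; Cbl-b carries an N-terminal biotinylated Avi-tag captured by streptavidin-terbium. An absent FRET signal indicates inhibition.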

T-cell [3] = assay: IL-2 secretion from T-cells co-stimulated with anti-CD3 and anti-CD28 antibody (Biological Example 2); type: cell-based, human; settings: Homo sapiens, T-cell, fold change over baseline (anti-CD3/anti-CD28 stimulated T-cells without inhibitor), read-out: IL-2 secretion Anti-CD3/Anti-CD28 stimulation; for fold induction at 0.3 µM: 0.3 μM Cbl-b inhibitor; for fold induction at 1 µM: 1 μM Cbl-b inhibitor
Summary of the method: (§1)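 Values are fold-change over baseline: readings (IL-2 release, CD25 staining) from inhibitor-treated T-cells divided against untreated cells […]. No detailed procedure stated.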

T-cell [4] = assay: IL-2 secretion from T-cells stimulated with anti-CD3 antibody alone (Biological Example 2); type: cell-based, human; settings: Homo sapiens, T-cell; 1 μM Cbl-b inhibitor; fold change over baseline (anti-CD3/anti-CD28 stimulated T-cells without inhibitor); read-out: IL-2 secretion Anti-CD3 stimulation
T-cell [5] = assay: CD25 cell surface staining on T-cells stimulated with anti-CD3 antibody alone (Biological Example 2); type: cell-based, human; settings: Homo sapiens, T-cell; 1 μM Cbl-b inhibitor; fold change over baseline (anti-CD3/anti-CD28 stimulated T-cells without inhibitor); read-out: CD25 staining Anti-CD3 stimulation
T-cell [6] = assay: CD25 cell surface staining on T-cells co-stimulated with anti-CD3 and anti-CD28 antibody (Biological Example 2); type: cell-based, human; settings: Homo sapiens, T-cell, fold change over baseline (anti-CD3/anti-CD28 stimulated T-cells without inhibitor), read-out: CD25 staining Anti-CD3/Anti-CD28 stimulation; for fold induction at 0.3 µM: 0.3 μM Cbl-b inhibitor; for fold induction at 1 µM: 1 μM Cbl-b inhibitor
Summary of the method: as §1

[7] = assay buffer with 100 mM NaCl, 60 nM Src kinase, read-out: Cbl-b activity IC50
[8] = * assay buffer containing 50 mM NaCl instead of 100 mM NaCl and 30 nM Src kinase instead of 60 nM, read-out: Cbl-b activity IC50 (μM)*

Sequence of Cbl-b (residues 36-427) (Q13191 36-427): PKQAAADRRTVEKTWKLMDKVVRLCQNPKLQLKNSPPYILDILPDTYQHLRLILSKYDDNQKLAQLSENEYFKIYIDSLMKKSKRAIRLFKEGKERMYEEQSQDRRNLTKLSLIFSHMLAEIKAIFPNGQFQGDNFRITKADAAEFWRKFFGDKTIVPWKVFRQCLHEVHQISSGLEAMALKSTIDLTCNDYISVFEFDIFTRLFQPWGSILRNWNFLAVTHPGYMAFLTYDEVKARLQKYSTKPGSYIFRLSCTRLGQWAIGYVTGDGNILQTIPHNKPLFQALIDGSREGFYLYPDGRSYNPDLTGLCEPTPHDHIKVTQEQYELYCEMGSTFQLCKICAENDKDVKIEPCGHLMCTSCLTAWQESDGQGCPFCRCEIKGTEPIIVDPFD
T1 sequence (Q13191 36-427): as above

Structure (SMILES) | IC50 (Cbl-b [1]; [7]) [µM] | Kd (Cbl-b (residues 36-427)) [µM] | IC50 (Cbl-b [1]; [8]) [µM] | other results
C[C@@H](c1cccc(N2Cc3c(cccc3C(F)(F)F)C2=O)c1)[C@@H](F)c1nncn1C (single isomer, unassigned) [Compound 474a] | < 0.1 | 0.1 to 0.3 | – | –
CC(Sc1nncn1C)c1cccc(NC(=O)c2cnc3ccccc3n2)c1 (stereo not drawn) [Compound 17, N-(3-(1-((4-Methyl-4H-1,2,4-triazol-3-yl)thio)ethyl)phenyl)quinoxaline-2-carboxamide] | – | 3 to 10 | 3 to 10 | –
C[C@H](Sc1nncn1C)c1cccc(NC(=O)c2cccc(C(F)(F)F)c2)c1 [Compound 29, (S)-N-(3-(1-((4-Methyl-4H-1,2,4-triazol-3-yl)thio)ethyl)phenyl)-3-(trifluoromethyl)benzamide] | – | > 10 | 3 to 10 | –
CC(C)c1cccc(C(=O)Nc2cccc([C@H](C)Sc3nncn3C)c2)c1 [Compound 31, (S)-3-Isopropyl-N-(3-(1-((4-methyl-4H-1,2,4-triazol-3-yl)thio)ethyl)phenyl)benzamide] | – | > 10 | 3 to 10 | –
CC(Sc1nncn1C)c1ccc(F)c(NC(=O)c2ccc3ccccc3n2)c1 (stereo not drawn) [Compound 96, N-[2-fluoro-5-[1-[(4-methyl-1,2,4-triazol-3-yl)sulfanyl]ethyl]phenyl]quinoline-2-carboxamide] | – | > 10 | 3 to 10 | –
COCC(Sc1nncn1C)c1cccc(NC(=O)c2cccc(C(F)(F)F)n2)c1 (stereo not drawn) [Compound 133, N-[3-[2-methoxy-1-[(4-methyl-1,2,4-triazol-3-yl)sulfanyl]ethyl]phenyl]-6-(trifluoromethyl)pyridine-2-carboxamide] | – | 3 to 10 | 3 to 10 | –
CCC(Sc1nncn1C)c1cccc(NC(=O)c2ccc3ccccc3n2)c1 (stereo not drawn) [Compound 136, N-[3-[1-[(4-methyl-1,2,4-triazol-3-yl)sulfanyl]propyl]phenyl]quinoline-2-carboxamide] | – | 3 to 10 | 3 to 10 | –
CCC(Sc1nncn1C)c1cccc(NC(=O)c2cc3ccccc3cn2)c1 (stereo not drawn) [Compound 137, N-[3-[1-[(4-methyl-1,2,4-triazol-3-yl)sulfanyl]propyl]phenyl]isoquinoline-3-carboxamide] | – | 3 to 10 | 3 to 10 | –
C[C@H](Sc1nncn1C)c1cccc(NC(=O)c2cc3cc(OCC(=O)O)ccc3cn2)c1 [Compound 305, (S)-2-((3-((3-(1-((4-methyl-4H-1,2,4-triazol-3-yl)thio)ethyl)phenyl)-carbamoyl)isoquinolin-6-yl)oxy)acetic acid] | 0.301 to 1 | > 10 | – | –
CNC(=O)COc1ccc2cnc(C(=O)Nc3cccc([C@@H](C)Sc4nncn4C)c3)cc2c1 [Compound 306b, (R)-N-(3-(1-(4-methyl-4H-1,2,4-triazol-3-ylthio)ethyl)phenyl)-6-(2-(methylamino)-2-oxoethoxy)isoquinoline-3-carboxamide] | 3 to 10 | 3 to 10 | – | –
COc1cccc2c1CN(Cc1cc3c(c(C(F)(F)F)c1)CN(c1cccc(C4(Cc5nncn5C)COC4)c1)C3=O)C2 [Example 702, 6-((4-methoxyisoindolin-2-yl)methyl)-2-(3-(3-((4-methyl-4H-1,2,4-triazol-3-yl)methyl)oxetan-3-yl)phenyl)-4-(trifluoromethyl)isoindolin-1-one] | < 0.1 | – | – | IC50 (Cbl-b [2]): ≤ 0.1 µM; fold induction at 0.3 µM (T-cell [3]): 5 to 7.5; fold induction at 1 µM (T-cell [3]): > 7.5; fold induction at 1 µM (T-cell [4]): > 0.201; fold induction at 1 µM (T-cell [5]): > 1; fold induction at 0.3 µM (T-cell [6]): 1.51 to 1.75; fold induction at 1 µM (T-cell [6]): 1.51 to 1.75
Cn1cnnc1CC1(c2cccc(N3Cc4c(cc(CN5CCOC6(CCC6)C5)cc4C(F)(F)F)C3=O)c2)COC1 [Example 703, 6-((5-oxa-8-azaspiro[3.5]nonan-8-yl)methyl)-2-(3-(3-((4-methyl-4H-1,2,4-triazol-3-yl)methyl)oxetan-3-yl)phenyl)-4-(trifluoromethyl)isoindolin-1-one] | < 0.1 | – | – | IC50 (Cbl-b [2]): ≤ 0.1 µM; fold induction at 0.3 µM (T-cell [3]): > 7.5; fold induction at 1 µM (T-cell [3]): > 7.5; fold induction at 1 µM (T-cell [4]): > 0.201; fold induction at 1 µM (T-cell [5]): > 1; fold induction at 0.3 µM (T-cell [6]): 1.01 to 1.3; fold induction at 1 µM (T-cell [6]): 1.01 to 1.3
